Converted amounts (≈) assume the structure as drawn.
How the values were obtained:
Format in all cases: functional
[1] = Antioxidant activity assessed as inhibition of xanthine-xanthine oxidase generated superoxide anion radical-mediated NBT reduction by spectrophotometric analysis
[2] = test system: Staphylococcus aureus; assay: Antimicrobial activity against Staphylococcus aureus NCIM 5021 assessed as diameter of growth inhibition zone at 100 ug/ml after 24 hr by paper disk diffusion method; conditions: NCIM 5021, 24 h, read-out: DIZ
[3] = test system: Candida albicans; assay: Antimicrobial activity against Candida albicans NCIM 3102 assessed as growth inhibition by agar streak dilution method
[4] = test system: Candida albicans; assay: Antimicrobial activity against Candida albicans NCIM 3102 assessed as diameter of growth inhibition zone at 100 ug/ml after 48 hr by paper disk diffusion method; conditions: NCIM 3102, 48 h, read-out: DIZ
[5] = test system: Radical scavenging activity; assay: Antioxidant activity assessed as DPPH radical scavenging activity by visible spectrophotometric analysis
[6] = test system: Escherichia coli; assay: Antimicrobial activity against Escherichia coli NCIM 2574 assessed as diameter of growth inhibition zone at 100 ug/ml after 24 hr by paper disk diffusion method; conditions: NCIM 2574, 24 h, read-out: DIZ
[7] = test system: Escherichia coli; assay: Antimicrobial activity against Escherichia coli NCIM 2574 assessed as growth inhibition by agar streak dilution method
[8] = test system: Aspergillus flavus; assay: Antimicrobial activity against Aspergillus flavus NCIM 524 assessed as growth inhibition by agar streak dilution method
[9] = test system: Pseudomonas aeruginosa; assay: Antimicrobial activity against Pseudomonas aeruginosa NCIM 5029 assessed as diameter of growth inhibition zone at 100 ug/ml after 24 hr by paper disk diffusion method; conditions: NCIM 5029, 24 h, read-out: DIZ
[10] = Antioxidant activity assessed as inhibition of Fe3+/ascorbic acid-induced hydroxyl radical production-mediated 2-deoxyribose degradation after 1 hr
[11] = test system: Pseudomonas aeruginosa; assay: Antimicrobial activity against Pseudomonas aeruginosa NCIM 5029 assessed as growth inhibition by agar streak dilution method
[12] = test system: Bacillus subtilis; assay: Antimicrobial activity against Bacillus subtilis NCIM 2999 assessed as diameter of growth inhibition zone at 100 ug/ml after 24 hr by paper disk diffusion method; conditions: NCIM 2999, 24 h, read-out: DIZ
[13] = test system: Staphylococcus aureus; assay: Antimicrobial activity against Staphylococcus aureus NCIM 5021 assessed as growth inhibition by agar streak dilution method
[14] = test system: Bacillus subtilis; assay: Antimicrobial activity against Bacillus subtilis NCIM 2999 assessed as growth inhibition by agar streak dilution method
[15] = test system: Aspergillus flavus; assay: Antimicrobial activity against Aspergillus flavus NCIM 524 assessed as diameter of growth inhibition zone at 100 ug/ml after 48 hr by paper disk diffusion method; conditions: NCIM 524, 48 h, read-out: DIZ
[16] = Antioxidant activity assessed as inhibition of NO radical production from sodium nitroprusside after 150 min by Griess reagent analysis

Row | SMILES | IC50 [1] | zone of inhibition at 100 µg/mL [2] | MIC [3] | zone of inhibition at 100 µg/mL [4] | IC50 [5] | zone of inhibition at 100 µg/mL [6] | MIC [7] | MIC [8] | zone of inhibition at 100 µg/mL [9] | IC50 [10] | MIC [11] | zone of inhibition at 100 µg/mL [12] | MIC [13] | MIC [14] | zone of inhibition at 100 µg/mL [15] | IC50 [16]
1 | NC(CCC(=O)n1c(-c2cc(F)cc(F)c2)nc2ccccc2c1=O)C(=O)O (stereo not given) | 45.7 µg/mL (≈ 118 µM) | 11 mm | 15 µg/mL (≈ 38.7 µM) | 11 mm | 27.4 µg/mL (≈ 70.7 µM) | 12 mm | 50 µg/mL (≈ 129 µM) | 25 µg/mL (≈ 64.5 µM) | 14 mm | 38.1 µg/mL (≈ 98.4 µM) | 25 µg/mL (≈ 64.5 µM) | 16 mm | 13 µg/mL (≈ 33.6 µM) | 15 µg/mL (≈ 38.7 µM) | 10.4 mm | –
2 | NC(CCC(=O)n1c(-c2ccc(F)c(F)c2F)nc2ccccc2c1=O)C(=O)O (stereo not given) | 48.2 µg/mL (≈ 119 µM) | 13.2 mm | 10 µg/mL (≈ 24.7 µM) | 13.6 mm | 29.7 µg/mL (≈ 73.3 µM) | 12.7 mm | 12 µg/mL (≈ 29.6 µM) | 15 µg/mL (≈ 37 µM) | 14.8 mm | 55.1 µg/mL (≈ 136 µM) | 10 µg/mL (≈ 24.7 µM) | 13.5 mm | 8 µg/mL (≈ 19.7 µM) | 8 µg/mL (≈ 19.7 µM) | 14.4 mm | –
3 | NC(CCC(=O)n1c(-c2cc(F)ccc2F)nc2ccccc2c1=O)C(=O)O (stereo not given) | 50.8 µg/mL (≈ 131 µM) | 14 mm | 10 µg/mL (≈ 25.8 µM) | 11.4 mm | 34.9 µg/mL (≈ 90.1 µM) | 11 mm | 30 µg/mL (≈ 77.5 µM) | 15 µg/mL (≈ 38.7 µM) | 17 mm | 41.8 µg/mL (≈ 108 µM) | 35 µg/mL (≈ 90.4 µM) | 12 mm | 12.5 µg/mL (≈ 32.3 µM) | 12.5 µg/mL (≈ 32.3 µM) | 10.9 mm | –
4 | NC(CCC(=O)n1c(Cc2ccccc2)nc2ccccc2c1=O)C(=O)O (stereo not given) | 31.6 µg/mL (≈ 86.5 µM) | 10 mm | 100 µg/mL (≈ 274 µM) | 14 mm | 26.6 µg/mL (≈ 72.8 µM) | 11 mm | > 100 µg/mL | 75 µg/mL (≈ 205 µM) | 11 mm | 29.8 µg/mL (≈ 81.6 µM) | > 100 µg/mL | 7 mm | 50 µg/mL (≈ 137 µM) | 50 µg/mL (≈ 137 µM) | 10.2 mm | 36.2 µg/mL (≈ 99.1 µM)
5 | NC(CCC(=O)n1c(OCc2ccccc2Cl)nc2ccccc2c1=O)C(=O)O (stereo not given) | 31.4 µg/mL (≈ 75.5 µM) | 12 mm | 25 µg/mL (≈ 60.1 µM) | 13.7 mm | 26.1 µg/mL (≈ 62.8 µM) | 10 mm | 50 µg/mL (≈ 120 µM) | 40 µg/mL (≈ 96.2 µM) | 13 mm | 27.7 µg/mL (≈ 66.6 µM) | 50 µg/mL (≈ 120 µM) | 14 mm | 30 µg/mL (≈ 72.1 µM) | 50 µg/mL (≈ 120 µM) | 11 mm | 38.7 µg/mL (≈ 93.1 µM)
6 | COc1ccc(-c2nc3ccccc3c(=O)n2C(=O)CCC(N)C(=O)O)cc1 (stereo not given) | 20.1 µg/mL (≈ 52.7 µM) | 14 mm | 25 µg/mL (≈ 65.6 µM) | 10 mm | 18.4 µg/mL (≈ 48.2 µM) | 11 mm | 20 µg/mL (≈ 52.4 µM) | 15 µg/mL (≈ 39.3 µM) | 13 mm | 23.4 µg/mL (≈ 61.4 µM) | 25 µg/mL (≈ 65.6 µM) | 10 mm | 30 µg/mL (≈ 78.7 µM) | 50 µg/mL (≈ 131 µM) | 14 mm | 20.1 µg/mL (≈ 52.7 µM)
7 | NC(CCC(=O)n1c(-c2ccc([N+](=O)[O-])cc2)nc2ccccc2c1=O)C(=O)O (stereo not given) | – | 14 mm | 10 µg/mL (≈ 25.2 µM) | 14.1 mm | 36.4 µg/mL (≈ 91.8 µM) | 9 mm | 25 µg/mL (≈ 63.1 µM) | 12.5 µg/mL (≈ 31.5 µM) | 11 mm | 39 µg/mL (≈ 98.4 µM) | 25 µg/mL (≈ 63.1 µM) | 16 mm | 9.6 µg/mL (≈ 24.2 µM) | 12.5 µg/mL (≈ 31.5 µM) | 13.6 mm | 49 µg/mL (≈ 124 µM)
8 | Nc1ccc(-c2nc3ccccc3c(=O)n2C(=O)CCC(N)C(=O)O)cc1 (stereo not given) | – | 10 mm | 50 µg/mL (≈ 136 µM) | 12.5 mm | 17.5 µg/mL (≈ 47.8 µM) | 15 mm | 50 µg/mL (≈ 136 µM) | 50 µg/mL (≈ 136 µM) | 16 mm | 18 µg/mL (≈ 49.1 µM) | 50 µg/mL (≈ 136 µM) | 13 mm | 25 µg/mL (≈ 68.2 µM) | 30 µg/mL (≈ 81.9 µM) | 11 mm | 19.4 µg/mL (≈ 53 µM)
9 | Cc1ccccc1-c1nc2ccccc2c(=O)n1C(=O)CCC(N)C(=O)O (stereo not given) | – | 11 mm | 25 µg/mL (≈ 68.4 µM) | 12 mm | 24.9 µg/mL (≈ 68.1 µM) | 10 mm | 50 µg/mL (≈ 137 µM) | 25 µg/mL (≈ 68.4 µM) | 11 mm | 30.4 µg/mL (≈ 83.2 µM) | 30 µg/mL (≈ 82.1 µM) | 12 mm | 50 µg/mL (≈ 137 µM) | 30 µg/mL (≈ 82.1 µM) | 15 mm | 29.1 µg/mL (≈ 79.6 µM)
10 | NC(CCC(=O)n1c(-c2ccccc2)nc2ccccc2c1=O)C(=O)O (stereo not given) | – | 11 mm | 30 µg/mL (≈ 85.4 µM) | 14 mm | 29.7 µg/mL (≈ 84.5 µM) | 15 mm | 50 µg/mL (≈ 142 µM) | 25 µg/mL (≈ 71.2 µM) | 12 mm | 31.2 µg/mL (≈ 88.8 µM) | 75 µg/mL (≈ 213 µM) | 11 mm | 45 µg/mL (≈ 128 µM) | 50 µg/mL (≈ 142 µM) | 10 mm | 36 µg/mL (≈ 102 µM)
11 | NC(CCC(=O)n1c(-c2ccc(O)cc2)nc2ccccc2c1=O)C(=O)O (stereo not given) | 15.2 µg/mL (≈ 41.4 µM) | 13 mm | 40 µg/mL (≈ 109 µM) | 9 mm | 14.3 µg/mL (≈ 38.9 µM) | 15 mm | 50 µg/mL (≈ 136 µM) | 40 µg/mL (≈ 109 µM) | 13 mm | 17.8 µg/mL (≈ 48.5 µM) | 50 µg/mL (≈ 136 µM) | 9 mm | 25 µg/mL (≈ 68.1 µM) | 25 µg/mL (≈ 68.1 µM) | 15 mm | 15.2 µg/mL (≈ 41.4 µM)
12 | O=C1O[C@H]([C@@H](O)CO)C(O)=C1O [ASCORBIC ACID] | – | – | – | – | 12.6 µg/mL (≈ 71.5 µM) | – | – | – | – | – | – | – | – | – | – | –

— ChEMBL document CHEMBL3044707, “Synthesis of some new glutamine linked 2,3-disubstituted quinazolinone derivatives as potent antimicrobial and antioxidant agents” (Med Chem Res, 2013)
